In US6638943B2 (The University of Tennessee Research Foundation, priority 2001, dated 2003):
Like-named read-outs stand apart in the source and are kept apart here.

Legend:
[1] = molecular target: T1, human α1b-AR (Homo sapiens, UniProt P35368); experiment: [3H]prazosin equilibrium competition binding, human α1b-AR expressed in HEK cells
T1 construct: expressed in transfected cells; host or cells: HEK cells
T1 sequence (P35368 1-520): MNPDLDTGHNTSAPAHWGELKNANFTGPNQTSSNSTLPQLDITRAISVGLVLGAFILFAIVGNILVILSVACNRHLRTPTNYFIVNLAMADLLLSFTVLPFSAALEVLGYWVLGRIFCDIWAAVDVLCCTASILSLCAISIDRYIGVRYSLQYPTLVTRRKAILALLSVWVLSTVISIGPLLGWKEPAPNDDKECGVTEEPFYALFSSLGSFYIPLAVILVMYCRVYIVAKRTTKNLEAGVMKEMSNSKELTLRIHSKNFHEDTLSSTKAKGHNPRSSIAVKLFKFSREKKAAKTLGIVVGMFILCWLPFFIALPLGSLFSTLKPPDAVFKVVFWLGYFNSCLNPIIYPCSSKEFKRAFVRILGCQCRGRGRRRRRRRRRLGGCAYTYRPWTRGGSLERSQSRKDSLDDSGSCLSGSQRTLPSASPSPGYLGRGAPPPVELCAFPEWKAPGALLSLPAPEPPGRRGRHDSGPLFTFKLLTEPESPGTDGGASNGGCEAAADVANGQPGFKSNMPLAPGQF

[2] = molecular target: T2, human α2c-AR (Homo sapiens, UniProt P18825); experiment: [3H]Rauwolscine equilibrium competition binding, human α2c-AR expressed in CHO cells
T2 construct: expressed in transfected cells
T2 sequence (P18825 1-462): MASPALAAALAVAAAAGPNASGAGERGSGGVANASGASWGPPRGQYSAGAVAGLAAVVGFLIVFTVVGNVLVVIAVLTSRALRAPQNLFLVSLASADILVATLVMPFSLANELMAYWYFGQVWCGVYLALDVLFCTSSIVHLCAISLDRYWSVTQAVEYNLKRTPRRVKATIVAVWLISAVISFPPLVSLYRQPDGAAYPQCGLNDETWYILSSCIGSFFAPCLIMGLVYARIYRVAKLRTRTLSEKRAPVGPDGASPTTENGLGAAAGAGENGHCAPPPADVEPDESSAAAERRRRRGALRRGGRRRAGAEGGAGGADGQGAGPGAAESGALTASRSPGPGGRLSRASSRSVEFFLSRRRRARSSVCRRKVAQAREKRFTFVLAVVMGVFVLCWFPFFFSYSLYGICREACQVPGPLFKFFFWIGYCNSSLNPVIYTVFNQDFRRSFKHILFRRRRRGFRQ

[3] = molecular target: T3, human α2b-AR (Homo sapiens, UniProt P18089); experiment: [3H]Rauwolscine equilibrium competition binding, human α2b-AR expressed in CHO cells
T3 construct: expressed in transfected cells
T3 sequence (P18089 1-450): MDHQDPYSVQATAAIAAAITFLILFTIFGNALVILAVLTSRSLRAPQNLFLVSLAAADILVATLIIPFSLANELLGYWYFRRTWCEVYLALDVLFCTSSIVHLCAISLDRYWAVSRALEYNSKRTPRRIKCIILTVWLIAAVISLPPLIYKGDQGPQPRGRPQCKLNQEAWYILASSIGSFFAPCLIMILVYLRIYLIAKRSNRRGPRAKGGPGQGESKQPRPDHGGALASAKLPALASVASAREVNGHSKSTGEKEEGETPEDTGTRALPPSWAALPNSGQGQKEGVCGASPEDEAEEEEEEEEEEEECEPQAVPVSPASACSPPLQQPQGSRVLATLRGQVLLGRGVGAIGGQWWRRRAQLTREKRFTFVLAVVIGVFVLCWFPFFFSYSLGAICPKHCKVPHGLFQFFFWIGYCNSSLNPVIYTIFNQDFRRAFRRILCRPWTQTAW

[4] = molecular target: T4, human α2a-AR (Homo sapiens, UniProt P08913); experiment: Reversal of medetomidine mediated inhibition of forskolin-induced cAMP (6 CRE-LUC reporter), CHO cells expressing α2a-AR; assay type: cell-based; conditions: reversal of medetomidine (10 nM) effect on forskolin (5 μM) cAMP response; mean ± SEM of n=3-4; read-out: Effective Concentration-50 (nM ± SEM) α2a-AR
T4 construct: expressed in transfected cells
T4 sequence (P08913 1-465): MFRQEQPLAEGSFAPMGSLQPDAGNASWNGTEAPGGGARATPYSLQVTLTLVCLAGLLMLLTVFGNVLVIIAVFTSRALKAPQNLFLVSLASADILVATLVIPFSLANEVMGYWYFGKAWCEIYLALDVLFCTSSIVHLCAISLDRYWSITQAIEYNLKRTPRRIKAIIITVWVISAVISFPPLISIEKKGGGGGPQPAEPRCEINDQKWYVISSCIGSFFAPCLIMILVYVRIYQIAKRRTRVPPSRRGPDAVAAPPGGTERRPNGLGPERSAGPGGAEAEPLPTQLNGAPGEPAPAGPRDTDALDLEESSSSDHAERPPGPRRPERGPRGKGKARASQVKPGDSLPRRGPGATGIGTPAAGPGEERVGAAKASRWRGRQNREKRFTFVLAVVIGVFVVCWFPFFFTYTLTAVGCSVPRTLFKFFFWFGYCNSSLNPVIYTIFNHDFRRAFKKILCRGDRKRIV
Description: (§1) The changes in cAMP levels were assessed by luciferase activities using a 6 CRE-LUC reporter gene bioassay.

[5] = molecular target: T4, human α2a-AR; experiment: [3H]Rauwolscine equilibrium competition binding, human α2a-AR expressed in CHO cells; conditions: human α2a-AR in CHO cells
[6] = molecular target: T2, human α2c-AR; experiment: Reversal of medetomidine mediated inhibition of forskolin-induced cAMP (6 CRE-LUC reporter), CHO cells expressing α2c-AR; assay type: cell-based
Description: as §1

[7] = molecular target: T5, human α1a-AR (Homo sapiens, UniProt P35348); experiment: [3H]prazosin equilibrium competition binding, human α1a-AR expressed in HEK cells
T5 construct: expressed in transfected cells; host or cells: HEK cells
T5 sequence (P35348 1-466): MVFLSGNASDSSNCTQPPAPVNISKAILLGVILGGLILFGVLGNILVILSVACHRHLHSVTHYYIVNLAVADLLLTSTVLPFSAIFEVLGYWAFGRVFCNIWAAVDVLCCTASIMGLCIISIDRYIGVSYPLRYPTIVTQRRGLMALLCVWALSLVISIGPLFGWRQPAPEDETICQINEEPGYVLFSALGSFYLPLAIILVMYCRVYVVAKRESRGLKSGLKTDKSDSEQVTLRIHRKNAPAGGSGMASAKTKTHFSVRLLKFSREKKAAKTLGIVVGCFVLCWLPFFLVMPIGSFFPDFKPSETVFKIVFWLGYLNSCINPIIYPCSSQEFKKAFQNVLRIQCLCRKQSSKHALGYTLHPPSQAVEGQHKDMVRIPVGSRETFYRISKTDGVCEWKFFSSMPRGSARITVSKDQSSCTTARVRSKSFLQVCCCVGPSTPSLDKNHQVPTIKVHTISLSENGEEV

[8] = molecular target: T6, human α1d-AR (Homo sapiens, UniProt P25100); experiment: [3H]prazosin equilibrium competition binding, human α1d-AR expressed in HEK cells
T6 construct: expressed in transfected cells; host or cells: HEK cells
T6 sequence (P25100 1-572): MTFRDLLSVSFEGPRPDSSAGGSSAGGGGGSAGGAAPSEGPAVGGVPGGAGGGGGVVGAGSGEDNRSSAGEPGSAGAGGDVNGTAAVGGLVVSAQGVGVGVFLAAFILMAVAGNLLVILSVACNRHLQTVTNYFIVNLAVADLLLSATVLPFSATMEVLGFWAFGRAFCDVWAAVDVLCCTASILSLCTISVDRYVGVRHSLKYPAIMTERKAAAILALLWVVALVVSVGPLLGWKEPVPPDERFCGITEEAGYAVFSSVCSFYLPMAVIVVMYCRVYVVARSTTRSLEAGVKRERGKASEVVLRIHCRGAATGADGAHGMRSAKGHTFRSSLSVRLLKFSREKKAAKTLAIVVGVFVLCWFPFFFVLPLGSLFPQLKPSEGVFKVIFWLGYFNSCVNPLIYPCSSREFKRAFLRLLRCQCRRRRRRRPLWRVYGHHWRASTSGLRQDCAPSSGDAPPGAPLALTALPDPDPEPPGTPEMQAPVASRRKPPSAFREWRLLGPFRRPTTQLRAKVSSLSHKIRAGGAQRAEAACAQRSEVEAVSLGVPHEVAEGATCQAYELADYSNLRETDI

Structure (SMILES): O=C(NCCCNC(=O)[C@@H]1[C@H]2C[C@H]3c4[nH]c5ccccc5c4CCN3C[C@@H]2CC[C@@H]1O)[C@@H]1[C@H]2C[C@H]3c4[nH]c5ccccc5c4CCN3C[C@@H]2CC[C@@H]1O [Compound 3b]
- Ki [1]: 5750 nM
- Ki [2]: 5.75 nM
- pKi α2c-AR ([2]; Table 3, CHO cells, [3H]rauwolscine, mean ± SEM of n = 4-6): 8.24 ± 0.07
- binding affinity for α2c-AR greater than on the α1-AR subtypes ([2]; from Table 3): ≥ 1000 fold
- Ki ([3]; Table 2, mean ± SEM of n = 4-6, read-out: pKi α2b-AR (converted)): 2040 nM
- Ki ([3]; [3H]rauwolscine 2.54 nM, mean ± SEM of four to nine experiments, read-out: Ki = SEM (nM) α2b-AR): 990 ± 85.2 nM
- EC50 [4]: 660 ± 210 nM
- Ki ([5]; Table 2, mean ± SEM of n = 4-6, read-out: pKi α2a-AR (converted)): 182 nM
- Ki ([5]; [3H]rauwolscine 2.54 nM, mean ± SEM of four to nine experiments, read-out: Ki = SEM (nM) α2a-AR): 52 ± 3.2 nM
- EC50 [6]: 15.8 ± 5.2 nM
- more potent at inhibiting the action of medetomidine on α2c-AR versus α2a-AR ([6]; from Table 4): 42 fold
- Ki [7]: 17000 nM
- Ki [8]: 7760 nM
